The assay concerns fulvestrant-resistant MCF7:5C-FR cells. In words: Fulvestrant-resistant breast cancer cell viability (cell proliferation) assay. In kind it is cell-based. The conditions noted are these: 120 h, growth inhibition in fulvestrant-resistant MCF-7:CFR cells, 120 hrs. On the procedure:
For the cell proliferation assay, the fulvestrant-resistant MCF7:5C-FR cells were seeded at about 2000 to about 2500/well in 96-well plates. The next day, compounds were add to the cells at desired serial concentrations form 3 nM to 10 uM. A final 0.1% (v/v) DMSO was used as vehicle control and 1 uM JQ1 was used as positive. The cell were grown in the normal culture condition for 120 hrs. Then the Hoechst 33342 dye were add to each well at a final concentration of 5 μg/ml, and put back to the incubator at 37 C for 90 min. The plates were scanned immediately after the incubation with Celigo (Nexcelcom Biocesnse) for the fluorescence of the nuclear using DAPI channel, and the cell number was counted thought the analysis function of the Celigo software. The normalized cell number to the vehicle control was used to represent the cell proliferation. […] N.D.=Not determined.

Broadly, the IC50 is the concentration at which inhibition is half-maximal.

Bounds are passed on as bounds.

Consider `CCS(=O)(=O)Nc1cc(-c2cn(C)c3c(O)nccc23)cc2c1ncn2[C@H](c1ccccc1)C1CCOCC1` [Compound 64, (S)-N-(6-(7-hydroxy-1-methyl-1H-pyrrolo[2,3-c]pyridin-3-yl)-1-(phenyl(tetrahydro-2H-pyran-4-yl)methyl)-1H-benzo[d]imidaol-4-yl)ethanesulfonamide], for which the IC50 is below 1000 nM.
The molecule `CCS(=O)(=O)Nc1cc(-c2cn(C)c3c(O)nccc23)cc2c1ccn2Cc1cc(Cl)cc(CCN(C)C)c1` [Compound 57, N-(1-(3-chloro-5-(2-(dimethylamino)ethyl)benzyl)-6-(7-hydroxy-1-methyl-1H-pyrrolo[2,3-c]pyridin-3-yl)-1H-indol-4-yl)ethanesulfonamide] displayed an IC50 above 100 nM.
With `CCS(=O)(=O)c1cccc2c1cc(-c1cn(C)c3c(O)nccc13)n2[C@@H](c1ccccc1)C1CCOCC1` [Compound 121, (R)-3-(4-(ethylsulfonyl)-1-(phenyl(tetrahydro-2H-pyran-4-yl)methyl)-1H-indol-2-yl)-1-methyl-1H-pyrrolo[2,3-c]pyridin-7-ol] the figure was below 1000 nM.
With `CCS(=O)(=O)Nc1cc(-c2cn(C)c3c(O)nccc23)cc2c1ccn2Cc1ccc(F)cc1C` [Compound 25, N-(1-(4-fluoro-2-methylbenzyl)-6-(7-hydroxy-1-methyl-1H-pyrrolo[2,3-c]pyridin-3-yl)-1H-indol-4-yl)ethanesulfonamide] the figure was below 200 nM.
In turn, `CCS(=O)(=O)Nc1cc(-c2cn(C)c3c(O)nccc23)cc2c1ccn2Cc1ccccc1C(F)(F)F` [Compound 59, N-(6-(7-hydroxy-1-methyl-1H-pyrrolo[2,3-c]pyridin-3-yl)-1-(2-(trifluoromethyl)benzyl)-1H-indol-4-yl)ethanesulfonamide] showed an IC50 above 100 nM.
With `Cn1cc(C(OCc2ccc(F)cc2)c2cccc(-c3ccc(F)cc3)c2)c2ccnc(O)c21` (stereo not shown) [Compound 9, 3-((4′-fluoro-[1,1′-biphenyl]-3-yl)((4-fluorobenzyl)oxy)methyl)-1-methyl-1H-pyrrolo[2,3-c]pyridin-7-ol] the figure was above 5000 nM; with `CCN(C(=O)C1COC1)c1cc(-c2cn(C)c3c(=O)[nH]ccc23)cc2c1ccn2Cc1c(C)cccc1C` [Compound 77, N-(1-(2,6-dimethylbenzyl)-6-(7-hydroxy-1-methyl-1H-pyrrolo[2,3-c]pyridin-3-yl)-1H-indol-4-yl)-N-ethyloxetane-3-carboxamide], above 100 nM.
With `Cn1cc(C(=O)c2ccc(-c3ccc(F)cc3)cc2)c2ccnc(O)c21` [Compound 4, (4′-fluoro-[1,1′-biphenyl]-4-yl)(7-hydroxy-1-methyl-1H-pyrrolo[2,3-c]pyridin-3-yl)methanone] the figure was above 5000 nM; with `CS(=O)(=O)Nc1cc(-c2cn(CC(=O)CCl)c3c(O)nccc23)cc2c1ccn2Cc1ccc(F)cc1` [Compound 90, N-(6-(1-(3-chloro-2-oxopropyl)-7-hydroxy-1H-pyrrolo[2,3-c]pyridin-3-yl)-1-(4-fluorobenzyl)-1H-indol-4-yl)methanesulfonamide], below 1000 nM.
For `CCS(=O)(=O)Nc1cccc2c1nc(-c1cn(C)c3c(O)nccc13)n2C(C)(c1ccccn1)c1ccccn1` [Compound 69, N-(1-(1,1-di(pyridin-2-yl)ethyl)-2-(7-hydroxy-1-methyl-1H-pyrrolo[2,3-c]pyridin-3-yl)-1H-benzo[d]imidaol-4-yl)ethanesulfonamide], the IC50 is below 1000 nM.
With `Cc1cc(F)ccc1Cn1ccc2cc(NS(C)(=O)=O)cc(-c3cn(C)c4c(O)nccc34)c21` [Compound 21, N-(1-(4-fluoro-2-methylbenzyl)-7-(7-hydroxy-1-methyl-1H-pyrrolo[2,3-c]pyridin-3-yl)-1H-indol-5-yl)methanesulfonamide] the figure was 3500 nM.
With `CNS(=O)(=O)CCc1ccc(OC)cc1C(=O)c1cn(C)c2c(O)nccc12` [Compound 15, 2-(2-(7-hydroxy-1-methyl-1H-pyrrolo[2,3-c]pyridine-3-carbonyl)-4-methoxyphenyl)-N-methylethane-1-sulfonamide] the figure was above 1000 nM; with `Cn1cc(-c2cc3c(C(C)(C)O)cccc3n2[C@H](c2ccccc2)C2CCOCC2)c2ccnc(O)c21` [Compound 117, (S)-3-(4-(2-hydroxypropan-2-yl)-1-(phenyl(tetrahydro-2H-pyran-4-yl)methyl)-1H-indol-2-yl)-1-methyl-1H-pyrrolo[2,3-c]pyridin-7-ol], below 1000 nM.
The molecule `CCS(=O)(=O)Nc1cc(-c2cn(C)c3c(O)nccc23)cc2c1ccn2Cc1ccc(C#N)cc1` [Compound 58, N-(1-(4-cyanobenzyl)-6-(7-hydroxy-1-methyl-1H-pyrrolo[2,3-c]pyridin-3-yl)-1H-indol-4-yl)ethanesulfonamide] registered an IC50 below 1000 nM.
On to `CCS(=O)(=O)Nc1cc(-c2cn(CCCl)c3c(O)nccc23)cc2c1ccn2Cc1ccc(F)cc1` [Compound 80, N-(6-(1-(2-chloroethyl)-7-hydroxy-1H-pyrrolo[2,3-c]pyridin-3-yl)-1-(4-fluorobenzyl)-1H-indol-4-yl)ethanesulfonamide], for which the IC50 was above 100 nM.
In the case of `CCS(=O)(=O)Nc1cc(-c2cn(C)c3c(O)nccc23)cc2c1ccn2Cc1cccc2ccsc12` [Compound 53, N-(1-(benzo[b]thiophen-7-ylmethyl)-6-(7-hydroxy-1-methyl-1H-pyrrolo[2,3-c]pyridin-3-yl)-1H-indol-4-yl)ethanesulfonamide] it was below 1000 nM; in that of `CCS(=O)(=O)Nc1cc(-c2cn(C)c3c(O)nccc23)cc2c1cnn2Cc1ccc(F)cc1C` [Compound 32, N-(1-(4-fluoro-2-methylbenzyl)-6-(7-hydroxy-1-methyl-1H-pyrrolo[2,3-c]pyridin-3-yl)-1H-indazol-4-yl)ethanesulfonamide], below 200 nM; in that of `CCS(=O)(=O)Nc1cc(-c2cn(CCCl)c3c(O)nccc23)cc2c1ccn2Cc1ccc(C#N)cc1` [Compound 86, N-(6-(1-(2-chloroethyl)-7-hydroxy-1H-pyrrolo[2,3-c]pyridin-3-yl)-1-(4-cyanobenzyl)-1H-indol-4-yl)ethanesulfonamide], below 1000 nM.
In the case of `CCS(=O)(=O)Nc1cccc2c1nc(-c1cn(C)c3c(O)nccc13)n2Cc1ccc(F)cc1C` [Compound 41, N-(1-(4-fluoro-2-methylbenzyl)-2-(7-hydroxy-1-methyl-1H-pyrrolo[2,3-c]pyridin-3-yl)-1H-benzo[d]imidazol-4-yl)ethanesulfonamide] it was below 1000 nM; in that of `Cn1cc(-c2cc3c(NS(C)(=O)=O)cccc3n2[C@H](c2ccccc2)C2CCOCC2)c2ccnc(O)c21` [Compound 122, (S)-N-(2-(7-hydroxy-1-methyl-1H-pyrrolo[2,3-c]pyridin-3-yl)-1-(phenyl(tetrahydro-2H-pyran-4-yl)methyl)-1H-indol-4-yl)methanesulfonamide], below 1000 nM; in that of `Cn1cc(C(=O)c2cccc(-c3ccc(F)cc3)c2)c2ccnc(O)c21` [Compound 2, (4′-fluoro-[1,1′-biphenyl]-3-yl)(7-hydroxy-1-methyl-1H-pyrrolo[2,3-c]pyridin-3-yl)methanone], 157 nM.
With `Cn1cc(-c2cc(NS(C)(=O)=O)cc3ccn(Cc4ccc(F)cc4)c23)c2ccnc(O)c21` [Compound 20, N-(1-(4-fluorobenzyl)-7-(7-hydroxy-1-methyl-1H-pyrrolo[2,3-c]pyridin-3-yl)-1H-indol-5-yl)methanesulfonamide] the figure was 1990 nM.

The values are drawn from patent US11840533B2, “Pyridinone-based epigenetic modifiers and uses thereof” (THE BOARD OF TRUSTEES OF THE UNIVERSITY OF ILLINOIS, priority 2017, dated 2023).
